Biological target: Voltage-gated calcium channel
Experiment: Functional Drug Screening System (FDSS): Calcium mobilization responses to KCl depolarization were evaluated by measuring the intensity of calcium-mediated fluorescent signal in the presence of BD Calcium Assay Dye (BD Biosciences, Franklin Lakes, N.J., U.S.A.), utilizing a Functional Drug Screening System (FDSS) by Hamamatsu Corporation (Bridgewater, N.J. U.S.A.).Twenty-four hr prior to assay, cells were seeded in clear-base poly-D-lysine-coated 384-well plates (BD Biosciences) at a density of 5,000 cells per well in culture medium and grown overnight in 5% CO2 at 37° C. On the day of assay, growth media were removed, and cells were loaded with BD calcium assay dye (BD Biosciences) for 35 min at 37° C. under 5% CO2 and then for 25 min at room temp. Utilizing the FDSS, cells were exposed to representative compounds of Formula (I) at varying concentrations, and intracellular calcium was measured for 5 min prior to the addition of 50 mM KCl for an additional 3 min of measurement.
Format: cell-based

SMILES: COc1ccccc1-n1nc(OC2CC(C)(C)C(=O)C(C)(C)C2)cc1-c1ccc(Cl)cc1
- IC50: 9.7 nM
